In patent US20050282755A1, “Compositions having antimicrobial activity and uses thereof” (priority 2004, published 2005):
≈ marks a conversion by molar mass, not a printed value. Non-standard residues stand in square brackets, D forms with d. Residues, ends and D or L forms follow the SMILES beside them. *: point of attachment. Lauroyl = CCCCCCCCCCCC(=O)*

Tests used:
Type in all cases: cell-based
[1] = system: Propionibacterium acnes ATCC 6919; experiment: MIC, agar dilution method NCCLS M11-A6, Brucella agar, anaerobic (Table 9, superscript c); details: ATCC 6919
Protocol: A bacterial suspension was prepared to allow for a final inoculum on the plate of 1.5×10^8 CFU/milliliter. After the suspension absorbed into the agar surface, the plates were incubated for 48-96 hours at 37° C. in a GasPak anaerobic chamber. The lowest concentration of peptide that contained no colony growth on the agar plate was determined as the MIC. MIC values that utilized this method of MIC determination are indicated in Table 9 with a superscript letter “c.”

[2] = system: Staphylococcus aureus ATCC 29213; experiment: MIC, NCCLS M7-A6 broth microdilution, cation-adjusted Mueller Hinton broth (Table 9, no superscript); details: ATCC 29213
Method in brief: (§1)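 Broth microdilution in cation-adjusted Mueller Hinton broth with log-phase inoculum at 5×10^5 to 1×10^6 CFU/mL, incubated overnight at 37° C. MIC was the lowest peptide concentration showing no visible turbidity versus the no-peptide control.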

[3] = system: Candida albicans ATCC 18804; experiment: MIC in yeasts, NCCLS M27-A2 broth microdilution, RPMI 1640 (Table 9, letter e); details: ATCC 18804
Method in brief: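 Plates incubated 24 to 48 hours at 37° C, with yeast seeded at 0.5×10^3–2.5×10^3 CFU/milliliter final in RPMI 1640 (glutamine, phenol red indicator). MIC was read as the lowest peptide concentration showing no visible growth.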

Salmonella dublin (Lane) = experiment: MIC, NCCLS M7-A6 broth microdilution (Table 9, no superscript)
Method in brief: as §1

[4] = system: Escherichia coli ATCC 25922; experiment: as above; details: ATCC 25922
Method in brief: as §1

[5] = system: Staphylococcus epidermidis ATCC 12228; experiment: as above; details: ATCC 12228
Method in brief: as §1

[6] = system: Pseudomonas aeruginosa ATCC 27853; experiment: as above; details: ATCC 27853
Method in brief: as §1

CSCC[C@H](NC(=O)[C@H](Cc1ccccc1)NC(=O)[C@H](CC(N)=O)NC(=O)[C@H](CCCNC(=N)N)NC(=O)[C@H](CO)NC(=O)[C@H](Cc1c[nH]c2ccccc12)NC(=O)[C@H](CC(=O)O)NC(=O)[C@H](CCCNC(=N)N)NC(=O)[C@H](Cc1c[nH]c2ccccc12)NC(=O)[C@H](CCCNC(=N)N)NC(=O)[C@H](CO)NC(=O)[C@H](CCCNC(=N)N)NC(=O)CNC(=O)[C@@H](NC(=O)[C@H](CCCNC(=N)N)NC(=O)[C@H](CO)NC(=O)[C@@H](NC(=O)[C@H](CCCNC(=N)N)NC(=O)[C@@H](NC(=O)[C@H](C)NC(=O)[C@H](C)NC(=O)[C@H](CCCNC(=N)N)NC(=O)[C@H](CCCNC(=N)N)NC(=O)[C@H](CCCNC(=N)N)NC(=O)[C@@H](N)CCCNC(=N)N)[C@@H](C)O)C(C)C)[C@@H](C)O)C(=O)N[C@@H](CCCNC(=N)N)C(=O)N[C@@H](C)C(=O)N[C@@H](C)C(=O)N[C@@H](CCCNC(=N)N)C(=O)N[C@@H](CCCNC(=N)N)C(=O)N[C@@H](CCCNC(=N)N)C(=O)N[C@@H](CCCNC(=N)N)C(N)=O [Peptide 12] (H-RRRRAATRVSRTGRSRWRDWSRNFMRAARRRR-NH2)
MIC P. acnes [1]: >64c ug/mL
MIC S. aureus [2]: 16 µg/mL (≈ 3.86 µM)
MIC C. albicans [3]: >64e ug/mL
MIC S. dublin (Salmonella dublin (Lane)): 32 µg/mL (≈ 7.72 µM)

CCCCCCCCCCCC(=O)N[C@H](C(=O)N[C@@H](CCCNC(=N)N)C(=O)N[C@H](C(=O)N[C@@H](C)C(=O)N[C@@H](CCCNC(=N)N)C(=O)N[C@H](C(=O)NCC(=O)N[C@@H](CCCNC(=N)N)C(=O)N[C@@H](CO)C(=O)N[C@@H](CCCNC(=N)N)C(=O)N[C@@H](Cc1c[nH]c2ccccc12)C(=O)N[C@@H](CCCNC(=N)N)C(=O)N[C@@H](CC(=O)O)C(=O)N[C@@H](Cc1c[nH]c2ccccc12)C(=O)N[C@@H](C)C(=O)N[C@@H](CCCNC(=N)N)C(=O)N[C@@H](CC(N)=O)C(=O)N[C@@H](Cc1ccccc1)C(=O)N[C@@H](CCSC)C(=O)N[C@@H](CCCNC(=N)N)C(N)=O)[C@@H](C)O)C(C)C)[C@@H](C)O [Peptide 70] (Lauroyl-TRVARTGRSRWRDWARNFMR-NH2)
MIC P. acnes [1]: 64c ug/mL
MIC S. aureus [2]: 8 µg/mL (≈ 2.9 µM)
MIC C. albicans [3]: 8e ug/mL
MIC S. dublin (Salmonella dublin (Lane)): 32 µg/mL (≈ 11.6 µM)
MIC E. coli [4]: 4 µg/mL (≈ 1.45 µM)
MIC S. epidermidis [5]: 1 µg/mL (≈ 0.362 µM)
MIC P. aeruginosa [6]: 8 µg/mL (≈ 2.9 µM)

CCCCCCCCCCCC(=O)N[C@@H](C(=O)N[C@H](CCCNC(=N)N)C(=O)N[C@@H](C(=O)N[C@H](C)C(=O)N[C@H](CCCNC(=N)N)C(=O)N[C@@H](C(=O)NCC(=O)N[C@H](CCCNC(=N)N)C(=O)N[C@H](CO)C(=O)N[C@H](CCCNC(=N)N)C(=O)N[C@H](Cc1c[nH]c2ccccc12)C(=O)N[C@H](CCCNC(=N)N)C(=O)N[C@H](CC(=O)O)C(=O)N[C@@H](C(=O)N[C@H](C)C(=O)N[C@H](CCCNC(=N)N)C(=O)N[C@H](CC(N)=O)C(=O)N[C@H](Cc1ccccc1)C(=O)N[C@H](CCSC)C(=O)N[C@H](CCCNC(=N)N)C(N)=O)C(C)C)[C@H](C)O)C(C)C)[C@H](C)O [Peptide 78, Lauryl-trvartgrsrwrdvarnfmr-NH2] (Lauroyl-[dT][dR][dV][dA][dR][dT]G[dR][dS][dR][dW][dR][dD][dV][dA][dR][dN][dF][dM][dR]-NH2)
MIC P. acnes [1]: 32c ug/mL
MIC S. aureus [2]: 8 µg/mL (≈ 2.99 µM)
MIC C. albicans [3]: 8e ug/mL
MIC S. dublin (Salmonella dublin (Lane)): 8 µg/mL (≈ 2.99 µM)
MIC E. coli [4]: 8 µg/mL (≈ 2.99 µM)
MIC S. epidermidis [5]: 1 µg/mL (≈ 0.374 µM)
MIC P. aeruginosa [6]: 8 µg/mL (≈ 2.99 µM)

CCCCCCCCCCCC(=O)N[C@@H](CCCNC(=N)N)C(=O)N[C@@H](CO)C(=O)N[C@@H](CCCNC(=N)N)C(=O)N[C@@H](Cc1c[nH]c2ccccc12)C(=O)N[C@@H](CCCNC(=N)N)C(=O)N[C@@H](CC(=O)O)C(=O)N[C@@H](Cc1c[nH]c2ccccc12)C(=O)N[C@@H](CO)C(=O)N[C@@H](CCCNC(=N)N)C(=O)N[C@@H](CC(N)=O)C(=O)N[C@@H](Cc1ccccc1)C(=O)N[C@@H](CCSC)C(=O)N[C@@H](CCCNC(=N)N)C(N)=O [Peptide 87, Lauryl-RSRWRDWSRNFMR-NH2] (Lauroyl-RSRWRDWSRNFMR-NH2)
MIC P. acnes [1]: >64c ug/mL
MIC S. aureus [2]: 4 µg/mL (≈ 1.97 µM)
MIC C. albicans [3]: 16e ug/mL
MIC S. dublin (Salmonella dublin (Lane)): 8 µg/mL (≈ 3.93 µM)

CCCCCCCCCCCC(=O)N[C@H](CCCNC(=N)N)C(=O)N[C@H](CC(C)C)C(=O)N[C@H](CCCNC(=N)N)C(=O)N[C@H](Cc1c[nH]c2ccccc12)C(=O)N[C@H](CCCNC(=N)N)C(=O)N[C@H](CCC(=O)O)C(=O)N[C@@H](C(=O)N[C@H](C)C(=O)N[C@H](CCCNC(=N)N)C(=O)N[C@H](CC(C)C)C(=O)N[C@H](Cc1ccccc1)C(=O)N[C@H](CC(C)C)C(=O)N[C@H](CCCNC(=N)N)C(N)=O)C(C)C [Peptide 227, Lauryl-rlrwrevarlflr-NH2] (Lauroyl-[dR][dL][dR][dW][dR][dE][dV][dA][dR][dL][dF][dL][dR]-NH2)
MIC P. acnes [1]: >64c ug/mL
MIC S. aureus [2]: 32 µg/mL (≈ 16.4 µM)
MIC S. dublin (Salmonella dublin (Lane)): 32 µg/mL (≈ 16.4 µM)
MIC E. coli [4]: 64 µg/mL (≈ 32.8 µM)
MIC S. epidermidis [5]: 32 µg/mL (≈ 16.4 µM)
MIC P. aeruginosa [6]: >64 µg/mL

CCCCCCCCCCCC(=O)N[C@H](CCCNC(=N)N)C(=O)N[C@H](CO)C(=O)N[C@H](CCCNC(=N)N)C(=O)N[C@H](Cc1c[nH]c2ccccc12)C(=O)N[C@H](CCCNC(=N)N)C(=O)N[C@H](CC(=O)O)C(=O)N[C@H](CO)C(=O)N[C@H](C)C(=O)N[C@H](CCCNC(=N)N)C(=O)N[C@H](CC(N)=O)C(=O)N[C@H](Cc1ccccc1)C(=O)N[C@H](CCSC)C(=O)N[C@H](CCCNC(=N)N)C(N)=O [Peptide 233, Lauryl-rsrwrdsarnfmr-NH2] (Lauroyl-[dR][dS][dR][dW][dR][dD][dS][dA][dR][dN][dF][dM][dR]-NH2)
MIC P. acnes [1]: 16c ug/mL
MIC S. aureus [2]: 16 µg/mL (≈ 8.34 µM)
MIC S. dublin (Salmonella dublin (Lane)): >64 µg/mL
MIC E. coli [4]: 16 µg/mL (≈ 8.34 µM)
MIC S. epidermidis [5]: 16 µg/mL (≈ 8.34 µM)
MIC P. aeruginosa [6]: 64 µg/mL (≈ 33.3 µM)

CCCCCCCCCCCC(=O)N[C@@H](CCCNC(=N)N)C(=O)N[C@@H](Cc1c[nH]c2ccccc12)C(=O)N[C@@H](CCCNC(=N)N)C(=O)N[C@@H](CC(=O)O)C(=O)N[C@@H](CC(C)C)C(=O)N[C@@H](C)C(=O)N[C@@H](CCCNC(=N)N)C(N)=O [Peptide 241, Lauryl-RWRDLAR-NH2] (Lauroyl-RWRDLAR-NH2)
MIC P. acnes [1]: 64c ug/mL
MIC S. aureus [2]: 4 µg/mL (≈ 3.47 µM)
MIC S. dublin (Salmonella dublin (Lane)): 16 µg/mL (≈ 13.9 µM)
MIC E. coli [4]: 32 µg/mL (≈ 27.7 µM)
MIC S. epidermidis [5]: 8 µg/mL (≈ 6.94 µM)
MIC P. aeruginosa [6]: 32 µg/mL (≈ 27.7 µM)

CCCCCCCCCCCC(=O)N[C@@H](CCCNC(=N)N)C(=O)N[C@@H](Cc1c[nH]c2ccccc12)C(=O)N[C@@H](CCCNC(=N)N)C(=O)N[C@@H](C)C(=O)N[C@@H](CC(C)C)C(=O)N[C@@H](C)C(=O)N[C@@H](CCCNC(=N)N)C(N)=O [Peptide 242, Lauryl-RWRALAR-NH2] (Lauroyl-RWRALAR-NH2)
MIC P. acnes [1]: 64c ug/mL
MIC S. aureus [2]: 2 µg/mL (≈ 1.8 µM)
MIC S. dublin (Salmonella dublin (Lane)): 32 µg/mL (≈ 28.8 µM)
MIC E. coli [4]: 16 µg/mL (≈ 14.4 µM)
MIC S. epidermidis [5]: 2 µg/mL (≈ 1.8 µM)
MIC P. aeruginosa [6]: 8 µg/mL (≈ 7.21 µM)

CCCCCCCCCCCC(=O)N[C@@H](CCCNC(=N)N)C(=O)N[C@@H](Cc1c[nH]c2ccccc12)C(=O)N[C@@H](CCCNC(=N)N)C(=O)N[C@@H](C)C(=O)N[C@H](C(=O)N[C@@H](C)C(=O)N[C@@H](CCCNC(=N)N)C(N)=O)C(C)C [Peptide 243, Lauryl-RWRAVAR-NH2] (Lauroyl-RWRAVAR-NH2)
MIC P. acnes [1]: >64c ug/mL
MIC S. aureus [2]: 4 µg/mL (≈ 3.65 µM)
MIC S. dublin (Salmonella dublin (Lane)): >64 µg/mL
MIC E. coli [4]: 32 µg/mL (≈ 29.2 µM)
MIC S. epidermidis [5]: 2 µg/mL (≈ 1.83 µM)
MIC P. aeruginosa [6]: >64 µg/mL

CCCCCCCCCCCC(=O)N[C@H](CCCNC(=N)N)C(=O)N[C@H](Cc1c[nH]c2ccccc12)C(=O)N[C@H](CCCNC(=N)N)C(=O)N[C@H](C)C(=O)N[C@H](CC(C)C)C(=O)N[C@H](C)C(=O)N[C@H](CCCNC(=N)N)C(N)=O [Peptide 245, Lauryl-rwralar-NH2] (Lauroyl-[dR][dW][dR][dA][dL][dA][dR]-NH2)
MIC P. acnes [1]: 8c ug/mL
MIC S. aureus [2]: 1 µg/mL (≈ 0.901 µM)
MIC S. dublin (Salmonella dublin (Lane)): 16 µg/mL (≈ 14.4 µM)
MIC E. coli [4]: 8 µg/mL (≈ 7.21 µM)
MIC S. epidermidis [5]: 2 µg/mL (≈ 1.8 µM)
MIC P. aeruginosa [6]: 8 µg/mL (≈ 7.21 µM)

CCCCCCCCCCCC(=O)N[C@H](CCCNC(=N)N)C(=O)N[C@H](Cc1c[nH]c2ccccc12)C(=O)N[C@H](CCCNC(=N)N)C(=O)N[C@H](C)C(=O)N[C@@H](C(=O)N[C@H](C)C(=O)N[C@H](CCCNC(=N)N)C(N)=O)C(C)C [Peptide 246, Lauryl-rwravar-NH2] (Lauroyl-[dR][dW][dR][dA][dV][dA][dR]-NH2)
MIC P. acnes [1]: 32c ug/mL
MIC S. aureus [2]: 4 µg/mL (≈ 3.65 µM)
MIC S. dublin (Salmonella dublin (Lane)): >64 µg/mL
MIC E. coli [4]: 32 µg/mL (≈ 29.2 µM)
MIC S. epidermidis [5]: 2 µg/mL (≈ 1.83 µM)
MIC P. aeruginosa [6]: >64 µg/mL
